From patent US20020159994A1, “Biotin derivatives” (priority 2000, published 2002)

Target: T1, Mitra Avidin-Agarose (Gallus gallus, UniProt P02701)
T1 construct: Mitra (Mitra Medical Technology AB)
Assay: Adsorption of biotin-trimer to avidin-agarose column (conditioning, ELISA of recirculated fluid)
Assay type: binding
Parameters: biotin-trimer bound if one biotin-trimer is bound per available binding site: unit not given here
Method: Two mL of Mitra Avidin-Agarose was packed into a column housing and was washed with >10 mL of PBS at a flow rate of 1 mL/min (1.6 cm/min). Five mL of a 1 mg/mL solution of biotin-trimer in PBS was recirculated through the avidin-column at 1 mL/min for 20 minutes. At end of the recirculation, a sample (0.5 mL) was drawn from the recirculated solution and analysed by an ELISA technique developed by Mitra Medical Technology AB. The biotin-avidin-agarose-column was washed with phosphate buffer at 1 mL/min for 20 minutes. By determining the concentration of biotin-trimer in the recirculated fluid, the amount of adsorbed biotin-trimer was estimated to about 1.9 mg i.e. […] of gel at the end of recirculation.
Biotin-trimer was adsorbed to 2 mL of Mitra Avidin-Agarose. […] If one biotin-trimer is bound per available binding site this would correspond to […] biotin-trimer/mL. As about 0.95 mg biotin-trimer was bound per mL avidin-agarose it can be assumed that the adsorbent was saturated with biotin-trimer.

T1 sequence (P02701 25-152): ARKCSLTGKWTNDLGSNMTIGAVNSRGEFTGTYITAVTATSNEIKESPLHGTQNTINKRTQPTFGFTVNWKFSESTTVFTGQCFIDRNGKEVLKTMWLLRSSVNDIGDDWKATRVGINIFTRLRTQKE

O=C(CCCCC1OCC2NC(=O)NC21)NCCOCCOCCNC(=O)c1cc(C(=O)NCCOCCOCCNC(=O)CCCCC2OCC3NC(=O)NC32)cc(C(=O)NCCOCCOCCNC(=O)CCCCC2OCC3NC(=O)NC32)c1 (stereo not shown) [biotin-trimer]
biotin-trimer bound per mL avidin-agarose (2 mL Mitra Avidin-Agarose): about 0.95 mg per mL avidin-agarose | amount of adsorbed biotin-trimer at end of recirculation (2 mL Mitra Avidin-Agarose, 5 mL of 1 mg/mL biotin-trimer in PBS recirculated at 1 mL/min for 20 minutes): about 1.9 mg | amount of adsorbed biotin-trimer per mL of gel (2 mL Mitra Avidin-Agarose, end of 20 min recirculation): ~0.95 mg/mL | biotin-trimer bound if one biotin-trimer is bound per available binding site (theoretical, from static biotin binding capacity): 514
